Reference: patent US7205433B2, “Crystal of amino acid ester salt and process for producing the same” (Ajinomoto Co., Inc., priority 2002, dated 2007)

Columns and labels:
Type in all cases: physicochemical
[1] = Experimental Example 4: comparison of hygroscopicity by weight gain over time (40 to 46% RH); conditions: 24° C.
Method: The L-Ala-OEt HCl salt, L-Ala-OEt MsOH salt, L-Ala-OEt BsOH salt, L-Ala-OEt 4-CBS salt, L-Ala-OEt 4-EBS salt, L-Ala-OEt 2,4-DMBS salt, and L-Ala-OEt 2,5-DMBS salt were measured in an amount of about 0.3 g each, left standing in a thermostatic chamber at a temperature of 24° C. and a humidity of 40 to 46% RH, and the hygroscopicity was compared based on the weight gain with the lapse of time. A part of the crystal of the L-Ala-OEt HCl salt was liquefied in 30 minutes, and the liquefied portion increased thereafter with the lapse of time. After 100 minutes, the whole mass became like a sherbet.

[2] = Experimental Example 5: comparison of hygroscopicity by weight gain over time (60 to 66% RH); conditions: 24 EC
Method: The L-Ala-OMe HCl salt, L-Ala-OEt MsOH salt, L-Ala-OEt BsOH salt, L-Ala-OEt 4-CBS salt, L-Ala-OEt 4-EBS salt, L-Ala-OEt 2,4-DMBS salt, and L-Ala-OEt 2,5-DMBS salt were measured in an amount of about 0.3 g each, left standing in a thermostatic chamber at a temperature of 24 EC and a humidity of 60 to 66% RH, and the hygroscopicity was compared based on the weight gain with the lapse of time.

[3] = Experimental Example 7: evaluation of hygroscopicity by weight gain over time (60 to 66% RH); conditions: 24 EC
Method: The L-Ala-OMe HCl salt, L-Ala-OMe 4-EBS salt, L-Ala-OMe 2,4-DMBS salt, and L-Ala-OMe 2,5-DMBS salt were measured in an amount of about 0.3 g each, left standing in a thermostatic chamber at temperature of 24 EC and a humidity of 60 to 66% RH, and the hygroscopicity was compared based on the weight gain with the lapse of time. A part of the crystal of the L-Ala-OMe HCl salt was liquefied in 10 minutes, and the entirety became a sherbet in 20 minute. The liquefied portion increased thereafter with the lapse of time. After 80 minutes, the whole was liquefied.

| Compound | weight increase rate (%) ([1]; 0 minutes) | weight increase rate (%) ([1]; 15 minutes) | weight increase rate (%) ([1]; 30 minutes) | weight increase rate (%) ([1]; 45 minutes) | weight increase rate (%) ([1]; 60 minutes) | weight increase rate (%) ([1]; 75 minutes) | weight increase rate (%) ([1]; 90 minutes) | weight increase rate (%) ([1]; 120 minutes) | weight increase rate (%) ([1]; 150 minutes) | weight increase rate (%) ([1]; 180 minutes) | weight increase rate (%) ([2]; 0 minutes) | weight increase rate (%) ([2]; 10 minutes) | weight increase rate (%) ([2]; 20 minutes) | weight increase rate (%) ([2]; 35 minutes) | weight increase rate (%) ([2]; 50 minutes) | weight increase rate (%) ([2]; 65 minutes) | weight increase rate (%) ([2]; 80 minutes) | weight increase rate (%) ([2]; 95 minutes) | weight increase rate (%) ([2]; 110 minutes) | weight increase rate (%) ([2]; 125 minutes) | also measured |
| --- | --- | --- | --- | --- | --- | --- | --- | --- | --- | --- | --- | --- | --- | --- | --- | --- | --- | --- | --- | --- | --- |
| CCOC(=O)[C@H](C)N.O=S(=O)(O)c1ccc(Cl)cc1 [L-Ala-OEt 4-CBS salt, L-alanine ethyl ester 4-chlorobenzenesulfonate] | 0.00% | 1.55% | 1.51% | 1.48% | 1.81% | 2.01% | 2.14% | 2.30% | 2.17% | 2.27% | 0.00% | 2.26% | 2.83% | 3.38% | 3.77% | 4.10% | 4.31% | 4.46% | 4.58% | 4.70% | weight increase rate (%) ([2]; 140 minutes): 4.76%; weight increase rate (%) ([2]; 155 minutes): 4.82%; weight increase rate (%) ([2]; 170 minutes): 4.94%; weight increase rate (%) ([2]; 185 minutes): 4.94%; weight increase rate (%) ([2]; 200 minutes): 5.03% |
| CCOC(=O)[C@H](C)N.O=S(=O)(O)c1ccccc1 [L-Ala-OEt BsOH salt, L-alanine ethyl ester benzenesulfonate] | 0.00% | 0.66% | 0.63% | 0.75% | 0.93% | 1.05% | 1.08% | 1.23% | 1.02% | 1.08% | 0.00% | 1.46% | 1.80% | 1.97% | 2.11% | 2.22% | 2.25% | 2.28% | 2.22% | 2.22% | weight increase rate (%) ([2]; 140 minutes): 2.22%; weight increase rate (%) ([2]; 155 minutes): 2.22%; weight increase rate (%) ([2]; 170 minutes): 2.28%; weight increase rate (%) ([2]; 185 minutes): 2.25%; weight increase rate (%) ([2]; 200 minutes): 2.25% |
| L-alanine ethyl ester 2,4-dimethylbenzenesulfonate [L-Ala-OEt 2,4-DMBS salt] | 0.00% | 0.00% | 0.00% | 0.00% | 0.03% | 0.03% | 0.06% | 0.06% | 0.06% | 0.06% | 0.00% | 0.00% | 0.00% | 0.00% | 0.00% | 0.00% | 0.03% | 0.00% | 0.03% | 0.03% | weight increase rate (%) ([2]; 140 minutes): 0.03%; weight increase rate (%) ([2]; 155 minutes): 0.03%; weight increase rate (%) ([2]; 170 minutes): 0.06%; weight increase rate (%) ([2]; 185 minutes): 0.06%; weight increase rate (%) ([2]; 200 minutes): 0.06% |
| L-alanine ethyl ester 2,5-dimethylbenzenesulfonate [L-Ala-OEt 2,5-DMBS salt] | 0.00% | 0.00% | 0.00% | 0.06% | 0.10% | 0.16% | 0.19% | 0.26% | 0.32% | 0.32% | 0.00% | 0.00% | 0.03% | 0.03% | 0.09% | 0.06% | 0.06% | 0.06% | 0.12% | 0.06% | weight increase rate (%) ([2]; 140 minutes): 0.09%; weight increase rate (%) ([2]; 155 minutes): 0.09%; weight increase rate (%) ([2]; 170 minutes): 0.09%; weight increase rate (%) ([2]; 185 minutes): 0.09%; weight increase rate (%) ([2]; 200 minutes): 0.12% |
| L-alanine ethyl ester 4-ethylbenzenesulfonate [L-Ala-OEt 4-EBS salt] | 0.00% | 0.00% | 0.00% | 0.00% | 0.13% | 0.19% | 0.22% | 0.41% | 0.54% | 0.36% | 0.00% | 0.09% | 0.09% | 0.15% | 0.15% | 0.15% | 0.15% | 0.15% | 0.18% | 0.15% | weight increase rate (%) ([2]; 140 minutes): 0.18%; weight increase rate (%) ([2]; 155 minutes): 0.18%; weight increase rate (%) ([2]; 170 minutes): 0.18%; weight increase rate (%) ([2]; 185 minutes): 0.15%; weight increase rate (%) ([2]; 200 minutes): 0.21% |
| L-alanine methyl ester 2,4-dimethylbenzenesulfonate [L-Ala-OMe 2,4-DMBS salt] |  |  |  |  |  |  |  |  |  |  |  |  |  |  |  |  |  |  |  |  | weight increase rate (%) ([3]; 0 min): 0.00%; weight increase rate (%) ([3]; 10 min): 0.33%; weight increase rate (%) ([3]; 20 min): 0.37%; weight increase rate (%) ([3]; 35 min): 0.37%; weight increase rate (%) ([3]; 50 min): 0.37%; weight increase rate (%) ([3]; 65 min): 0.37%; weight increase rate (%) ([3]; 80 min): 0.37%; weight increase rate (%) ([3]; 95 min): 0.37%; weight increase rate (%) ([3]; 110 min): 0.40%; weight increase rate (%) ([3]; 125 min): 0.43%; weight increase rate (%) ([3]; 140 min): 0.40%; weight increase rate (%) ([3]; 155 min): 0.43%; weight increase rate (%) ([3]; 170 min): 0.47%; weight increase rate (%) ([3]; 185 min): 0.50%; weight increase rate (%) ([3]; 200 min): 0.50% |
| L-alanine methyl ester 2,5-dimethylbenzenesulfonate [L-Ala-OMe 2,5-DMBS salt] |  |  |  |  |  |  |  |  |  |  |  |  |  |  |  |  |  |  |  |  | weight increase rate (%) ([3]; 0 min): 0.00%; weight increase rate (%) ([3]; 10 min): 0.06%; weight increase rate (%) ([3]; 20 min): 0.06%; weight increase rate (%) ([3]; 35 min): 0.06%; weight increase rate (%) ([3]; 50 min): 0.03%; weight increase rate (%) ([3]; 65 min): 0.03%; weight increase rate (%) ([3]; 80 min): 0.03%; weight increase rate (%) ([3]; 95 min): 0.00%; weight increase rate (%) ([3]; 110 min): 0.03%; weight increase rate (%) ([3]; 125 min): 0.06%; weight increase rate (%) ([3]; 140 min): 0.00%; weight increase rate (%) ([3]; 155 min): 0.00%; weight increase rate (%) ([3]; 170 min): 0.03%; weight increase rate (%) ([3]; 185 min): 0.03%; weight increase rate (%) ([3]; 200 min): 0.06% |
| L-alanine methyl ester 4-ethylbenzenesulfonate [L-Ala-OMe 4-EBS salt] |  |  |  |  |  |  |  |  |  |  |  |  |  |  |  |  |  |  |  |  | weight increase rate (%) ([3]; 0 min): 0.00%; weight increase rate (%) ([3]; 10 min): 0.06%; weight increase rate (%) ([3]; 20 min): 0.06%; weight increase rate (%) ([3]; 35 min): 0.06%; weight increase rate (%) ([3]; 50 min): 0.06%; weight increase rate (%) ([3]; 65 min): 0.03%; weight increase rate (%) ([3]; 80 min): 0.06%; weight increase rate (%) ([3]; 95 min): 0.06%; weight increase rate (%) ([3]; 110 min): 0.03%; weight increase rate (%) ([3]; 125 min): 0.06%; weight increase rate (%) ([3]; 140 min): 0.06%; weight increase rate (%) ([3]; 155 min): 0.06%; weight increase rate (%) ([3]; 170 min): 0.06%; weight increase rate (%) ([3]; 185 min): 0.06%; weight increase rate (%) ([3]; 200 min): 0.06% |
